# Earlier results, collected in publication PMC3117075 (Journal of medicinal chemistry, 2011).
# Target: BRCT(BRCA1) (Homo sapiens, UniProt P38398)
# Details: previously reported value
# Sequence of BRCT(BRCA1) (P38398 1646-1859 limits assumed): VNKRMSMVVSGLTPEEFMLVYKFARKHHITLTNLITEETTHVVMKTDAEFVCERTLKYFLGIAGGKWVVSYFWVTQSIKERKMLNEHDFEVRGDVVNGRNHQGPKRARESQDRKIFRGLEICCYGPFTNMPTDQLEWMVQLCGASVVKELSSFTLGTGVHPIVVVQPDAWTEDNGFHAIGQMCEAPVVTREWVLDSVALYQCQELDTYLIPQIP
substance,measurement,value
ISRSTpSPTFNKQT,ΔCp (change in heat capacity at constant pressure),-340 ± 30 cal mol-1 K-1
